Source: patent publication US4544665A, “1-Aryl-3-azabicyclo[3.2.0]heptanes” (American Cyanamid Company, priority 1983, dated 1985)

What was measured:
human platelet membranes = target: T1, human platelet membranes (Homo sapiens, UniProt P31645); experiment: Platelet imipramine binding ([3H]-imipramine); design: key to Platelet Imipramine Binding, Result: Active: A compound is considered active if greater than about 50% inhibition is achieved at a concentration of about 10 μM; conditions: 10 μM test compound, 60 min at 0° C.; for inhibition at 10 µM: [3H]imipramine
T1 construct: from tissue; host or cells: human platelets (membranes of sonicated platelet concentrates)
T1 sequence (P31645 whole entry): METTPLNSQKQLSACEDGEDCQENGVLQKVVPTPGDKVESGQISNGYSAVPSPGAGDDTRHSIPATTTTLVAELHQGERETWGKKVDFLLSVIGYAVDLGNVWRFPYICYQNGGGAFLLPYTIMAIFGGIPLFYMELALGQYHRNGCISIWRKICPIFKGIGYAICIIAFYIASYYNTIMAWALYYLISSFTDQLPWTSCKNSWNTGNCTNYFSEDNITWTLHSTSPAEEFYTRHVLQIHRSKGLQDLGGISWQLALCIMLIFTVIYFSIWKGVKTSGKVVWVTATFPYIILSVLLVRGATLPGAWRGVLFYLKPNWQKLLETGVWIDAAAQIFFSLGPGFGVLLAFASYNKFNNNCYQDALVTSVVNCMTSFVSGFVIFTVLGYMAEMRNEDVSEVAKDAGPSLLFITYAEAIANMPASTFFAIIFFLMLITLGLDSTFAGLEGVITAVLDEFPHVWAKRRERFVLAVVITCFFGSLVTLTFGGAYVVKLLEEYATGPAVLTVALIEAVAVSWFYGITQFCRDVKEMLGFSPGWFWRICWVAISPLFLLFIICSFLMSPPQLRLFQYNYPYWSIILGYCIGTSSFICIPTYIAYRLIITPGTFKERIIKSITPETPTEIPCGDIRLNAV
Description: The activity of the compounds of this invention as anti-depressant agents was also shown in the following test which measures the ability of a test compound to inhibit [^3 H]-imipramine binding to human platelet membranes. Human platelet concentrates were diluted about 1:20 with antiprotease containing buffer of the following composition:
Approximately 0.12M: sodium chloride
Approximately 0.05M: tris buffer
Approximately 0.005N: potassium chloride
Approximately 0.025: μg/ml aprotinin
Approximately 0.5: μg/ml pepstatin
Approximately 2×10^-5 N: bacitracin
Approximately 3 mN: ethylenediaminetetraacetic acid
Approximately 1 mN: ethyleneglycol-bis-(β-aminoethyl ether)-N,N'-tetracetic acid
Such buffer was kept at about pH 6.8 to prevent platelet release and aggregation. The diluted platelets were centrifuged at about 2,500 g and then resuspended in about 50 volumes of the same buffer. The cells were then ruptured with a Branson sonicator while the suspension was maintained in an ice bath. The ruptured cells were then centrifuged at about 18,000 g, resuspended in fresh buffer and recentrifuged at about 18,000 g. The resulting membranes were then diluted with the above antiprotease buffer, which had been adjusted to about pH 7.4, and to a protein concentration of about 3.0 mg/ml.
The test compounds were dissolved in dimethylsulfoxide at a concentration of about 50 mM and then diluted about 1:10 in either water, about 0.1M hydrochloric acid or about 0.1M sodium hydroxide. They were then diluted about 1:100 in buffer to about 50 μM, and about 50 μl of this stock solution was placed in triplicate test tubes. The tubes were cooled to about 0° C. and about 200 μl of the following mixture were added:
About 100 μl of 3 mg/ml membrane in buffer
About 50 μl of 15 nM[^3 H]imipramine in buffer
The tubes were incubated for about 60 minutes at about 0° C. Controls contain either buffer alone (100%) or about 10 μM final of desmethylimipramine (DMI). The samples were diluted with about 5 ml of buffer [0.12M-sodium chloride, 0.05M-tris buffer, 0.005M-potassium chloride (pH 7.4)], vacuum filtered and washed twice with about 5 ml of buffer. Radioactivity was measured in a liquid scintillation counter and the degree of binding was calculated.

mice [1] = experiment: Tetrabenazine-induced depression (exploratory behavior); assay type: in vivo; design: key to Tetrabenazine-Induced Depression, Result: Active: A compound is considered active if 3 or more of the 10 mice are protected against the tetrabenazine-induced effects; conditions: about 25 mg/kg i.p., 30 min before tetrabenazine methanesulfonate about 39 mg/kg i.p.; for Tetrabenazine-Induced Depression, mice protected of 10: protected/tested; for Tetrabenazine-Induced Depression, Result: tested 30 min later
Description: The compounds of this invention are useful as anti-depressant agents in warm-blooded animals. The anti-depressant properties of these compounds were tested by measuring their ability to counteract depression induced in such animals by the administration of tetrabenazine methanesulfonate. Each test compound was administered intraperitoneally to 10 mice at a dose of about 25 mg/kg of body weight. Approximately thirty minutes later, tetrabenazine methanesulfonate was administered intraperitoneally to each mouse at a dose of about 39 mg/kg of body weight, which dose is known to depress markedly the exploratory behavior of normal mice. Approximately thirty minutes later, the mice were tested for their exploratory behavior as described by E. Greenblatt and A. C. Osterberg, Toxicology and Applied Pharmacology, 7: 556-578 (1965). A compound is considered active if 3 or more of the 10 mice are protected against the tetrabenazine-induced effects.

mice [2] = experiment: Tetrabenazine-induced ptosis; assay type: in vivo; design: key to Tetrabenazine-Induced Ptosis, Result: Active: A compound is considered active if 5 or more of 10 mice respond; conditions: about 25 mg/kg i.p.; for Tetrabenazine-Induced Ptosis, Result: 30 min before tetrabenazine methanesulfonate about 39 mg/kg i.p., examined 30 min later; for Tetrabenazine-Induced Ptosis, mice responding of 10: responders (about 75% or greater opening of palpebral aperture)/tested
Description: Inhibition of tetrabenazine-induced ptosis is observed concomitantly with the inhibition of tetrabenazine-induced depression. Ptosis is defined as more than about 75% closure of palpebral aperture induced in animals by the administration of tetrabenazine methanesulfonate. The compounds were administered intraperitoneally at a dosage of about 25 mg per kilogram of body weight to groups of 10 mice. About thirty minutes later, tetrabenazine methanesulfonate was administered intraperitoneally to each mouse at a dose of about 39 mg/kg. About thirty minutes after the injection of tetrabenazine, the mice were placed on an observation disc and examined for approximately 10 seconds for inhibition of ptosis. […] A compound is considered active if 5 or more of 10 mice respond.

Compound	Platelet Imipramine Binding, Result (human platelet membranes)	inhibition at 10 µM (human platelet membranes) [%]	Tetrabenazine-Induced Depression, mice protected of 10 (mice [1])	Tetrabenazine-Induced Depression, Result (mice [1])	Tetrabenazine-Induced Ptosis, Result (mice [2])	Tetrabenazine-Induced Ptosis, mice responding of 10 (mice [2])
COc1cccc(C23CCC2CN(C)C3)c1.O.O=C(O)/C=C/C(=O)O (centres unmarked) [1-(m-Methoxyphenyl)-3-methyl-3-azabicyclo[3.2.0]heptane, and fumarate salt monohydrate]	Active	99.8				
Cc1ccc(C23CCC2CN(C)C3)cc1.O=C(O)/C=C/C(=O)O (centres unmarked) [1-(p-Methylphenyl)-3-methyl-3-azabicyclo[3.2.0]heptane, and fumarate salt]			5/10	Active	Active	10/10
CCO[C@H]1C[C@@H]2CN(C)C[C@@]21c1cccc(OC)c1 (relative stereo) [7β-Ethoxy-1β-(m-methoxyphenyl)-3-methyl-3-azabicyclo[3.2.0]heptan]	Active	94	3/10	Active	Active	9/10
CCO[C@@H]1C[C@@H]2CN(C)C[C@@]21c1cccc(OC)c1 (relative stereo) [7α-Ethoxy-1β-(m-methoxyphenyl)-3-methyl-3-azabicyclo[3.2.0]heptane]	Active	92				
